Columns and labels:
[1] = system: apoptosis induced by anti-convulsants such as phenytoin and carbamazepine; conditions: tissue culture model; only in a dose range well above the plasma levels considered therapeutic in humans; Nonaka et al., 1998; cited from earlier work
[2] = system: immature brains; conditions: Ikonomidou et al., 2000; cited from earlier work
[3] = system: AKT; conditions: infant mice; within 30 minutes after administration of ethanol
[4] = system: ERK; conditions: infant mice; within less than 30 minutes after ethanol administration
[5] = system: neuroapoptosis triggered by a cocktail of anesthetic drugs; conditions: immature rats undergoing anesthesia; subcutaneous; Beals et al, 2003; cited from earlier work

SMILES: [Li] [Lithium]
- antiapoptotic action [1]: act as an antiapoptotic agent

SMILES: CCO [ethanol]
- neuroapoptosis responses in immature brains [2]: triggers especially severe neuroapoptosis responses
- activated isoform of AKT [3]: marked suppression
- activated isoforms of ERK [4]: rapid decrease

SMILES: COc1ccc2[nH]cc(CCNC(C)=O)c2c1 [melatonin]
- protection against pathological neuroapoptosis (effects of pretreatment) [5]: only modest
